Experimental findings from ChEMBL document CHEMBL1144655, “Potent and selective isophthalamide S2 hydroxyethylamine inhibitors of BACE1” (Bioorg Med Chem Lett, 2007) are described below.

pIC50: −log10 of the molar value.

Assay [1] addresses Beta-secretase 1 (Homo sapiens, UniProt P56817). Put plainly: Inhibition of BACE1.
The target in assay [2] is Cathepsin D (Homo sapiens, UniProt P07339). Kind of assay: Inhibition of cathepsin D.
Chain of Cathepsin D (P07339 65-162 limits assumed): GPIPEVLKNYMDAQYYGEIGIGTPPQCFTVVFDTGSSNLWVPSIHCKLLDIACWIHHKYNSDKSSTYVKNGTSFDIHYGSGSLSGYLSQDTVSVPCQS
Chain of Cathepsin D (P07339 169-412 limits assumed): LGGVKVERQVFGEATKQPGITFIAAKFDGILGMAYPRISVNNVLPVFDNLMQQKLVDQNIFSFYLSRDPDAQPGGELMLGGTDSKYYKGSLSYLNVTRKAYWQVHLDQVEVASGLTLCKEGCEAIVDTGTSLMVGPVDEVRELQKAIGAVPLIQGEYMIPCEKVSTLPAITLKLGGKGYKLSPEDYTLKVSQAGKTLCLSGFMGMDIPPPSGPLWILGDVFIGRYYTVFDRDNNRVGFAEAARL

Chain of Beta-secretase 1 (P56817 whole entry): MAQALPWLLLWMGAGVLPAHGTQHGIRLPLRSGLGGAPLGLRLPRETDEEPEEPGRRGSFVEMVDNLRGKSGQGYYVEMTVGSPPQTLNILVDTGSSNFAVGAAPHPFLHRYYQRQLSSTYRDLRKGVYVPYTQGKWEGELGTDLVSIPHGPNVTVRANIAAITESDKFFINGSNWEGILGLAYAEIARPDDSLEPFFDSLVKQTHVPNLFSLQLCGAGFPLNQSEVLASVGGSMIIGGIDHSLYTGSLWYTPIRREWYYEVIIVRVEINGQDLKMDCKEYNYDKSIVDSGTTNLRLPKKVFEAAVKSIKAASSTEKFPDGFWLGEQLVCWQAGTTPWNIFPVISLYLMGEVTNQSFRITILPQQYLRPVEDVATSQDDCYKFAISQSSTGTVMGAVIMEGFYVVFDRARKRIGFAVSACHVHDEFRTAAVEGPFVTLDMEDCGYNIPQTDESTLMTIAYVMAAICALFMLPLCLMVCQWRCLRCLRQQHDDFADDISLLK

As to `CCCN(CCC)C(=O)c1cc(C(=O)N[C@@H](Cc2ccccc2)[C@H](O)CNCc2cccc(OC)c2)cc(C(=O)N(CCC)CCC)c1`, the figures for the pIC50 in assay [1] and in assay [2] were 6.60 and 5.44, respectively.
In the same order, the values of `CCCN(CCC)C(=O)c1cc(CC#N)cc(C(=O)N[C@@H](Cc2ccccc2)[C@H](O)CNCc2cccc(OC)c2)c1` are 6.44 and 6.24.
For `CCCNC(=O)c1cc(C#N)cc(C(=O)N[C@@H](Cc2ccccc2)[C@H](O)CNCc2cccc(OC)c2)c1`, in that order: 6.11 and less than 4.70.
`CCCN(CCC)C(=O)c1cc(C(=O)N[C@@H](Cc2ccccc2)[C@H](O)CNCc2cccc(OC)c2)cc(C(=O)N(C)C)c1`: the pIC50 in assay [1] is 7.15; in assay [2] it was 5.42.
`CCCN(CCC)C(=O)c1cc(C(N)=O)cc(C(=O)N[C@@H](Cc2ccccc2)[C@H](O)CNCc2cccc(OC)c2)c1`: the negative logarithm of the IC50 (pIC50) in assay [1] is 7.00; in assay [2], 5.55.
Regarding `CCCN(CCC)C(=O)c1cc(C)cc(C(=O)N[C@@H](Cc2ccccc2)[C@H](O)CNCc2cccc(OC)c2)c1`, the pIC50 is 7.00 in assay [1] and 6.35 in assay [2].
In the same order, the values of `CCCN(CCC)C(=O)c1cc(C#N)cc(C(=O)N[C@@H](Cc2ccccc2)[C@H](O)CNCc2cccc(OC)c2)c1` are 7.05 and 6.18.
Take `CCCN(CCC)C(=O)c1cc(C(=O)O)cc(C(=O)N[C@@H](Cc2ccccc2)[C@H](O)CNCc2cccc(OC)c2)c1`: the pIC50 in assay [1] was 7.52; in assay [2], 5.44.
On to `CCCN(CCC)C(=O)c1cc(C(=O)N[C@@H](Cc2ccccc2)[C@H](O)CNCc2cccc(OC)c2)cc(C(=O)OCC)c1`, for which the pIC50 in assay [1] was 6.88; in assay [2] it was 6.06.
Take `CCCNC(=O)c1cc(C(N)=O)cc(C(=O)N[C@@H](Cc2ccccc2)[C@H](O)CNCc2cccc(OC)c2)c1`: the pIC50 was 5.72 in assay [1] and less than 4.70 in assay [2].
Turning to `CCCN(CCC)C(=O)c1cc(C(N)=O)cc(C(=O)N[C@@H](Cc2cc(F)cc(F)c2)[C@H](O)CNCc2cccc(OC)c2)c1`, in assay [2], the pIC50 is 5.62.
Take `CCCN(CCC)C(=O)c1cc(C)cc(C(=O)N[C@@H](Cc2cc(F)cc(F)c2)[C@H](O)CNCc2cccc(CC)c2)c1`: the pIC50 in assay [1] is 8.70; in assay [2], 6.82.
Turning to `CCCN(CCC)C(=O)c1cc(C(N)=O)cc(C(=O)N[C@@H](Cc2cc(F)cc(F)c2)[C@H](O)CNCc2cccc(CC)c2)c1`, the values for the negative logarithm of the IC50 (pIC50) in assay [1] and in assay [2] were 8.30 and 5.80, respectively.
Turning to `CCCN(CCC)C(=O)c1cc(C(N)=O)cc(C(=O)N[C@@H](Cc2ccc(O)cc2)[C@H](O)CNCc2cccc(OC)c2)c1`, the values for the pIC50 in assay [1] and in assay [2] were 6.52 and less than 4.70, respectively.
